Earlier results, collected in patent publication US9078816B2, “Buccal, polar and non-polar spray containing ondansetron” (Suda Ltd., priority 1997, dated 2015).

Legend:
[1] = include headaches, constipation, and dizziness

Cc1nccn1CC1CCc2c(c3ccccc3n2C)C1=O (stereo not drawn) [Ondansetron]
metabolism (liver): extensively metabolized by the liver
oral bioavailability (oral administration): about 60%
adverse effects [1]: mild
